{"source": "patent US8217071B2", "about": "“Use of inhibitors of the degradation of p27, in particular Argyrin and derivatives thereof, for the treatment of proliferative diseases” (Helmholtz Zentrum für Infektionsforschung GmbH, priority 2007, dated 2012)", "key": {"[1]": {"tested_on": "p27-GFP (clone H15GFP-p27, HeLa-cell line; cervix-carcinoma)", "assay": "GFP-fluorescence per FACS in clone H15GFP-p27", "format": "cell-based, human", "details": "GFP-fluorescence per FACS after 24 h incubation, 500 ng/ml", "from_the_text": "Human p27cDNA (in plasmid vector CS2+) was digested with EcoR1 and BamH1, and the resulting fragment was ligated after gel purification into the vector pEGFP-N1 (Clontech) that was cut with the same restriction enzymes. Thus, a […] fusion with the GFP as contained in the pEGFP-vector was generated. The plasmid was then transfected into Hela cells, and, following selection of the cells with kanamycin, cellular clones were isolated which had the plasmid integrated stably into their chromosome. The expression of the p27EGFP proteins was confirmed using Western blots and immune precipitations for both p27 and GFP.\n(§1) The following table summarizes the effects of argyrin-derivatives A to H on two cancer cell lines, H15 (cervix carcinoma) and SW-480 (colon cancer). In order to test the efficacy, a p27-GFP-clone was used."}, "H15 (cervix carcinoma)": {"tested_on": "H15 (cervix carcinoma)", "assay": "MIC (visual), serial dilution, H15", "format": "cell-based, human", "details": "minimal concentration of a serial dilution exhibiting a visual effect", "from_the_text": "as §1"}, "p27^kip1 [2]": {"tested_on": "p27^kip1", "assay": "p27^kip1 half life in cycloheximide treated cells", "format": "cell-based, human", "details": "HeLa and SW480 cells, cycloheximide 25 μg/mL", "description": "The inventors therefore conclude that Argyrin A prevents the degradation of p27 due to its proteasome inhibitory activity in vivo and induces apoptosis or G1 arrest in a variety of different tumour cell lines.\n(§2) The expression levels of p27^kip1 were determined at the indicated timepoints by western blotting and normalized against actin expression which was used as an internal control."}, "[3]": {"tested_on": "HCT116 colon carcinoma xenotransplant tumours", "assay": "HCT116 xenotransplant tumours in nu/nu mice", "format": "in vivo, mouse", "details": "HCT116 derived tumor-xenografts", "description": "Treatment with Argyrin A or bortezomib was started when these tumours reached a volume of 200 mm3. […] (n=8 Argyrin A, n=8 Bortezomib, n=6 PBS/EtOH) b) The pictures show the macroscopic appearance of a xenotransplant tumour after 10 days of treatment with Argyrin A. Note the large necrotic centre of the explanted tumour. c) After a single injection of Argyrin A (0.15 mg/kg bodyweight) or bortezomib (1.0 mg/kg bodyweight) tumours were explanted at the indicated time points and blood vessels in the tumour tissue were co-stained for CD31 and p27. […] Note the swelling of the endothelial cell (“E”) and the occlusion of the lumen (“L”) by erythrocytes after 90 minutes of Argyrin A treatment. The arrow marks the detachment of endothelial cells after 48 h of Argyrin A treatment. […] Tube length (f) and blood vessel like […] structures were determined using photographs of HUVEC cultures. The micrographs show representative examples of HUVEC cultures under the indicated conditions.\n1×10^7 SW480 cells or HCT116 cells (in 100 microliters DMEM medium and 100 microliters matrigel) were s.c. injected into the flanks of NMRI nu/nu mice. Tumours grew for approx. 18 days until they reached appropriate size (200 mm3). Tumour size was measured with a digital calliper and calculated with the help of the following formula: (Length×width2)*π/6. […]"}, "[4]": {"tested_on": "primary human fibroblasts", "assay": "Flow cytometry cell cycle / sub-G1 analysis", "format": "cell-based", "details": "at ranges of IC50", "description": "as §2\nMTT assays were done as previously described (Sasse, F. et al. Argyrins, immunosuppressive cyclic peptides from myxobacteria. I. Production, isolation, physico-chemical and biological properties. J Antibiot (Tokyo) 55, 543-51 (2002)). TUNEL staining of tissue sections was performed on 10 micrometer sections which were deparafinised and treated as recommended by the manufacturer. (In Situ Cell Death Detection Kit, Fluorescein; ROCHE, Cat #11 684 795 910). Flow cytometric analysis of cultured cells was done using a Becton Dickinson fluorescence cytometer as previously described (Malek, N. P. et al. A mouse knock-in model exposes sequential proteolytic pathways that regulate p27^Kip1 in G1 and S phase. Nature 413, 323-7 (2001)). Analysis of the distribution of cells in the cell cycle and the sub-G1 fraction was done using Cell Quest software. A histone-associated-DNA-fragments ELISA was used to determine the number of apoptotic cells according to manufacturers instructions (Roche #11 774425001)."}, "p27^kip1 [5]": {"tested_on": "p27^kip1", "assay": "p27^kip1 expression time course by western blotting", "format": "cell-based, human", "details": "SW480, HCT116 and HeLa cells", "description": "as §2\nImmunohistochemical staining of mouse tumour tissue, western Blotting and immunofluorescence experiments were done as previously described (Timmerbeul, I. et al. Testing the importance of p27 degradation by the SCFskp2 pathway in murine models of lung and colon cancer. Proc Natl Acad Sci USA 103, 14009-14 (2006). Kossatz, U. et al. C-terminal phosphorylation controls the stability and function of p27^kip1. Embo J 25, 5159-70 (2006).). The following antibodies were used: p27 (Cat. No. K25020-150; Transduction Labs), p21 (N20; Santa Cruz), p53 (FL-393; Santa Cruz), NfKB (C-20; Santa Cruz), Bax (P-19; Santa Cruz), Alexa fluor 488 (# A11001; Invitrogen), 20S-proteasome subunit beta 2 (Z) (PW9300; Bio-mol, for human cells), 20S-proteasome subunit beta 2 (Z) (PW8145; BIO TREND, for mouse cells); 20S proteasome subunit beta 1(Y) (PW8140; BIO TREND), 20S proteasome subunit beta 5 (PW8895; BIO TREND); PECAM Antibody clone MEC 13.3 (#550274; BD Pharmingen)."}, "SW-480 (colon cancer)": {"tested_on": "SW-480 (colon cancer)", "assay": "MIC (visual), serial dilution, SW-480", "format": "cell-based, human", "details": "minimal concentration of a serial dilution exhibiting a visual effect", "from_the_text": "as §1"}, "[6]": {"tested_on": "p27^kip1-GFP fusion protein in HeLa cells", "assay": "High throughput screen for p27 stabilizing substances", "format": "cell-based, human", "details": "70 nM", "from_the_text": "To identify substances which lead to an increase in the expression levels of p27^kip1 the inventors generated a cell based high throughput assay system (see materials and methods for details). […] As shown by flow cytometry, Argyrin A exerted two different cellular phenotypes at ranges of IC50. […] The apoptosis inducing activity of Argyrin A was confirmed by measuring DNA fragmentation using a histone fragmentation ELISA (FIG. 5B).\nA cellular high throughput screen for p27 stabilizing compounds was established by stably introducing a DNA plasmid (EGFP-N1, Clontech) which allows the expression of p27^kip1-GFP fusion protein in HeLa cells. p27-GFP expressing cells were selected with neomycin and several independent clones were subcultured. HeLa p27-GFP cells were seeded in 384 well plates (Corning) and incubated with a set of highly diverse natural products (part of the Helmholtz Center for Infection Research myxobacterial metabolite collection) at a concentration of 70 nM. GFP emission was determined by fluorometric measurements using a Victor 1420 multilabel counter (Perkin Elmer) at 3 h, 24 h, 48 h and 60 h after the start of treatment. The proteasome inhibitor MG132 was used as a positive control."}}, "note": "Numbered stars: 1 amine (or outer) side, 2 acyl side, 3 side chain; on linkers, the order of the positions; unused ones are H or OH. Square brackets hold non-standard residues; d marks the D form. Peptide text beside a SMILES is read from it. dAla(ψthiazole) = C[C@@H](N[*:1])c1nc(C(=O)[*:2])cs1; Trp(4-OMe) = COc1cccc2[nH]cc(C[C@H](N)C(=O)O)c12; Dha = C=C(N)C(=O)O; Sar = CNCC(=O)O"}
{"smiles": "C=C1NC(=O)[C@@H](C)NC(=O)CNC(=O)[C@H](Cc2c[nH]c3cccc(OC)c23)NC(=O)[C@H](Cc2c[nH]c3ccccc23)NC(=O)c2csc(n2)[C@@H](C)NC(=O)CN(C)C1=O", "note": "[Argyrin A] (cyclo(W[Trp(4-OMe)]G[dA][Dha][Sar][dAla(ψthiazole)]))", "values": [{"measurement": "Mean of FSC-H (Log) H15 p27-GFP-clone", "setting": "[1]", "result": 8.52}, {"measurement": "MIC (visual) H15", "setting": "H15 (cervix carcinoma)", "result": 4, "unit": "µg/mL"}, {"measurement": "p27 turnover", "setting": "p27^kip1 [2]", "result": "complete block"}, {"measurement": "tumour volume", "setting": "[3]", "result": "significant reduction"}, {"measurement": "cellular phenotype", "setting": "[4]", "result": "stopped to proliferate"}, {"measurement": "cellular p27^kip1 levels", "setting": "p27^kip1 [5]", "result": "increase"}, {"measurement": "MIC (visual) SW-480", "setting": "SW-480 (colon cancer)", "result": 4, "unit": "µg/mL"}, {"measurement": "increase in fluorescence (p27-GFP)", "setting": "[6]", "result": "strongest increase in fluorescence"}]}
